{
  "source": "patent US4217274A",
  "about": "“Methoxyethoxymethyl esters of penicillins” (Bristol-Myers Company, priority 1978, dated 1980)",
  "key": {"Str. pyogenes": {"system": "Str. pyogenes", "assay": "MIC, antibiotic dilution technique (agar)", "type": "cell-based, S. pyogenes", "settings": "Streptococcus pyogenes; Table 2, Str. pyogenes", "description": "(§1) Bacteria. The organisms, preponderantly of recent clinical origin, were obtained from numerous sources of broad geographical distribution. Obligate anaerobes were maintained in Egg Meat Medium (Difco); Mycobacterium was stored on Lowenstein Medium (Jensen Modification; Difco). The techniques of storing all other organisms have been described previously [Leitner et al., BL-S640, A Cephalosporin with a Broad Spectrum of Antibacterial Activity: Properties in vitro, Antimicrob. Agents Chemother., 7, 298-305 (1975)].\n(§2) Antibiotic spectrum. The growth-inhibitory activity of the compounds was determined by the antibiotic dilution technique. Procedures were as follows:\n(§3) Aerobic organisms (excluding Mycobacterium). Except for Haemophilus and Neisseria, the assay was performed in Mueller-Hinton Medium (Difco). For fastidious organisms, i.e., Streptococcus, Listeria, Pasteurella, Bordetella and Vibrio, the medium was supplemented with 4% defibrinated sheep blood. The antibiotic susceptibility of Haemophilus and Neisseria was determined in GC Medium Base (BBL) supplemented with 1% Hemoglobin (BBL) and 1% Isovitalex (BBL).\n(§4) Overnight broth cultures of an exponentially growing culture (Neisseria) served as the source of inoculum. A volume of approximately 0.003 ml. of the undiluted or diluted culture was applied to the surface of the antibiotic-containing agar plates with the inoculator of Steers et al., An Inocula Replicating Apparatus for Routine Testing of Bacterial Susceptibility to Antibiotics, Antibiot. Chemother., 9, 307-311, (1959). Cultures of Neisseria, Streptococcus pneumoniae, S. viridans and S. pyogenes were used without dilution; those of all other organisms were diluted 100-fold. The inoculum contained about 10^3 viable cells for Neisseria, 10^5 for S. pneumoniae and S. pyogenes, 10^6 for S. viridans and 10^4 for all other species."}, "E. Coli": {"system": "E. Coli", "assay": "MIC, antibiotic dilution technique (agar)", "type": "cell-based", "settings": "Escherichia coli, Table 2, E. coli", "description": "as §1, §2, §3, §4"}, "Ent. cloacae": {"system": "Ent. cloacae", "assay": "MIC, antibiotic dilution technique (agar)", "type": "cell-based", "settings": "Enterobacter cloacae", "description": "as §1, §2, §3, §4"}, "K. pneumoniae": {"system": "K. pneumoniae", "assay": "MIC, antibiotic dilution technique (agar)", "type": "cell-based", "settings": "Klebsiella pneumoniae, Table 2, K. pneumoniae", "description": "as §1, §2, §3, §4"}, "Pr. mirabilis": {"system": "Pr. mirabilis", "assay": "MIC, antibiotic dilution technique (agar)", "type": "cell-based", "settings": "Proteus mirabilis; Table 2, Pr. mirabilis", "description": "as §1, §2, §3, §4"}, "Pr. morganii": {"system": "Pr. morganii", "assay": "MIC, antibiotic dilution technique (agar)", "type": "cell-based", "settings": "Morganella morganii", "description": "as §1, §2, §3, §4"}, "Pr. rettgeri": {"system": "Pr. rettgeri", "assay": "MIC, antibiotic dilution technique (agar)", "type": "cell-based", "settings": "Providencia rettgeri; Table 2, Pr. rettgeri", "description": "as §1, §2, §3, §4"}, "Pr. vulgaris": {"system": "Pr. vulgaris", "assay": "MIC, antibiotic dilution technique (agar)", "type": "cell-based", "settings": "Proteus vulgaris; Table 2, Pr. vulgaris", "description": "as §1, §2, §3, §4"}, "Ps. aeruginosa": {"system": "Ps. aeruginosa", "assay": "MIC, antibiotic dilution technique (agar)", "type": "cell-based", "settings": "Pseudomonas aeruginosa, Table 2, Ps. aeruginosa", "description": "as §1, §2, §3, §4"}, "S. aureus Meth-Res.": {"system": "S. aureus Meth-Res.", "assay": "MIC, antibiotic dilution technique (agar)", "type": "cell-based", "settings": "Staphylococcus aureus; Table 2, S. aureus Meth-Res.", "description": "as §1, §2, §3, §4"}, "S. aureus Pen-Res.": {"system": "S. aureus Pen-Res.", "assay": "MIC, antibiotic dilution technique (agar)", "type": "cell-based", "settings": "Staphylococcus aureus", "description": "as §1, §2, §3, §4"}, "S. aureus": {"system": "S. aureus", "assay": "MIC, antibiotic dilution technique (agar)", "type": "cell-based", "settings": "Staphylococcus aureus", "description": "as §1, §2, §3, §4"}, "Ser. marcescens": {"system": "Ser. marcescens", "assay": "MIC, antibiotic dilution technique (agar)", "type": "cell-based", "settings": "Serratia marcescens; Table 2, Ser. marcescens", "description": "as §1, §2, §3, §4"}, "Str. faecalis": {"system": "Str. faecalis", "assay": "MIC, antibiotic dilution technique (agar)", "type": "cell-based", "settings": "Enterococcus faecalis; Table 2, Str. faecalis", "description": "as §1, §2, §3, §4"}, "Str. pneumoniae": {"system": "Str. pneumoniae", "assay": "MIC, antibiotic dilution technique (agar)", "type": "cell-based", "settings": "Streptococcus pneumoniae; Table 2, Str. pneumoniae", "description": "as §1, §2, §3, §4"}, "[1]": {"assay": "Mouse blood levels after oral administration (disc diffusion bioassay, Bacillus subtilis)", "settings": "in vivo, 100 mg/kg"}},
  "note": "Where two headings read alike, the source gives them in different places.",
  "data": [
    {"smiles": "CC1(C)S[C@@H]2[C@H](NC(=O)[C@H](N)c3ccc(O)cc3)C(=O)N2[C@H]1C(=O)O", "note": "[Amoxicillin, amoxicillin]", "values": [
      {"measurement": "MIC", "setting": "Str. pyogenes", "result": 0.004, "unit": "µg/mL"},
      {"measurement": "MIC", "setting": "E. Coli; first line", "result": 0.5, "unit": "µg/mL"},
      {"measurement": "MIC", "setting": "E. Coli; second line", "result": "> 125", "unit": "µg/mL"},
      {"measurement": "MIC", "setting": "Ent. cloacae", "result": 125, "unit": "µg/mL"},
      {"measurement": "MIC", "setting": "Ent. cloacae; Table 2, Ent. cloacae, first line, read-out: MIC", "result": 63, "unit": "µg/mL"},
      {"measurement": "MIC", "setting": "K. pneumoniae; first line", "result": 125, "unit": "µg/mL"},
      {"measurement": "MIC", "setting": "K. pneumoniae; second line", "result": "> 125", "unit": "µg/mL"},
      {"measurement": "MIC", "setting": "Pr. mirabilis", "result": 0.06, "unit": "µg/mL"},
      {"measurement": "MIC", "setting": "Pr. morganii", "result": 125, "unit": "µg/mL"},
      {"measurement": "MIC", "setting": "Pr. rettgeri", "result": 16, "unit": "µg/mL"},
      {"measurement": "MIC", "setting": "Pr. vulgaris", "result": 0.06, "unit": "µg/mL"},
      {"measurement": "MIC", "setting": "Ps. aeruginosa; first line", "result": 125, "unit": "µg/mL"},
      {"measurement": "MIC", "setting": "Ps. aeruginosa; second line", "result": "> 125", "unit": "µg/mL"},
      {"measurement": "MIC", "setting": "S. aureus Meth-Res.", "result": 32, "unit": "µg/mL"},
      {"measurement": "MIC", "setting": "S. aureus Pen-Res.", "result": "> 125", "unit": "µg/mL"},
      {"measurement": "MIC", "setting": "S. aureus; Table 2, S. aureus", "result": 0.03, "unit": "µg/mL"},
      {"measurement": "MIC", "setting": "S. aureus; Table 2, S. aureus + 50% serum", "result": 0.06, "unit": "µg/mL"},
      {"measurement": "MIC", "setting": "Ser. marcescens", "result": 32, "unit": "µg/mL"},
      {"measurement": "MIC", "setting": "Str. faecalis", "result": 0.06, "unit": "µg/mL"},
      {"measurement": "MIC", "setting": "Str. pneumoniae", "result": 0.004, "unit": "µg/mL"},
      {"measurement": "concentration at 0.25 h", "setting": "[1]", "result": 9500, "unit": "ng/mL"},
      {"measurement": "concentration at 0.5 h", "setting": "[1]", "result": 16900, "unit": "ng/mL"},
      {"measurement": "concentration at 1 h", "setting": "[1]", "result": 14200, "unit": "ng/mL"},
      {"measurement": "concentration at 1.5 h", "setting": "[1]", "result": 8700, "unit": "ng/mL"},
      {"measurement": "concentration at 2 h", "setting": "[1]", "result": 6300, "unit": "ng/mL"},
      {"measurement": "concentration at 3 h", "setting": "[1]", "result": 3100, "unit": "ng/mL"}
    ]}
  ]
}
